ChEMBL document CHEMBL4699627, “Synthesis and biological screening of thiosemicarbazones of substituted 3-acetylcoumarins having d-glucose moiety” (Bioorg Med Chem Lett, 2020)
In brackets after ≈: the same amount, converted by molar mass.

What was measured:
[1] = test system: Saccharomyces cerevisiae; experiment: Antifungal activity against Saccharomyces cerevisiae SH 20; type: functional
[2] = test system: Aspergillus niger; experiment: Antifungal activity against Aspergillus niger ATCC 439; type: functional
[3] = test system: Pseudomonas aeruginosa; experiment: Antibacterial activity against Pseudomonas aeruginosa ATCC […] assessed as reduction in bacterial growth; type: functional
[4] = test system: Staphylococcus aureus; experiment: Antibacterial activity against Staphylococcus aureus ATCC 11632 assessed as reduction in bacterial growth; type: functional
[5] = test system: Escherichia coli; experiment: Antibacterial activity against Escherichia coli ATCC 25922 assessed as reduction in bacterial growth; type: functional
[6] = test system: Staphylococcus epidermidis; experiment: Antibacterial activity against Staphylococcus epidermidis ATCC 12228 assessed as reduction in bacterial growth; type: functional
[7] = test system: Candida albicans; experiment: Antifungal activity against Candida albicans ATCC 7754; type: functional
[8] = test system: Salmonella typhimurium; experiment: Antibacterial activity against Salmonella typhimurium ATCC 14028 assessed as reduction in bacterial growth; type: functional, Salmonella enterica subsp. enterica serovar Typhimurium; conditions: Salmonella enterica
[9] = test system: Klebsiella pneumoniae; experiment: Antibacterial activity against Klebsiella pneumoniae ATCC 4352 assessed as reduction in bacterial growth; type: functional
[10] = test system: Bacillus subtilis; experiment: Antibacterial activity against Bacillus subtilis ATCC 11774 assessed as reduction in bacterial growth; type: functional
[11] = test system: Aspergillus flavus; experiment: Antifungal activity against Aspergillus flavus ATCC 204304; type: functional
[12] = test system: MDA-MB-231; experiment: Cytotoxicity against human MDA-MB-231 cells incubated for 3 days by MTT assay; type: functional, cell-based; conditions: MDA-MB-231, 72 h
[13] = test system: PC-3; experiment: Cytotoxicity against human PC-3 cells incubated for 3 days by MTT assay; type: functional, cell-based; conditions: PC-3, 72 h
[14] = test system: Mycobacterium tuberculosis; experiment: Antimycobacterial activity against Mycobacterium tuberculosis H37Ra ATCC 25177 assessed as bacterial killing incubated for 4 weeks by CLSI standard plate count method; type: functional; conditions: H37Ra ATCC 25177, 672 h
[15] = test system: Mycobacterium tuberculosis; experiment: Antimycobacterial activity against Mycobacterium tuberculosis H37Ra ATCC 25177 assessed as growth inhibition incubated for 7 days measured after 48 hrs treatment with resazurin by alamarblue assay; type: functional; conditions: H37Ra ATCC 25177, 216 h, time 9 day
[16] = molecular target: Rhodesain (Trypanosoma brucei rhodesiense, UniProt Q95PM0); experiment: Inhibition of Trypanosoma brucei rhodesiense rhodesain using fluorogenic substrate Z-Phe-Arg-aminomethylcoumarin as substrate by fluorescence assay
Sequence of Rhodesain (Q95PM0 whole entry): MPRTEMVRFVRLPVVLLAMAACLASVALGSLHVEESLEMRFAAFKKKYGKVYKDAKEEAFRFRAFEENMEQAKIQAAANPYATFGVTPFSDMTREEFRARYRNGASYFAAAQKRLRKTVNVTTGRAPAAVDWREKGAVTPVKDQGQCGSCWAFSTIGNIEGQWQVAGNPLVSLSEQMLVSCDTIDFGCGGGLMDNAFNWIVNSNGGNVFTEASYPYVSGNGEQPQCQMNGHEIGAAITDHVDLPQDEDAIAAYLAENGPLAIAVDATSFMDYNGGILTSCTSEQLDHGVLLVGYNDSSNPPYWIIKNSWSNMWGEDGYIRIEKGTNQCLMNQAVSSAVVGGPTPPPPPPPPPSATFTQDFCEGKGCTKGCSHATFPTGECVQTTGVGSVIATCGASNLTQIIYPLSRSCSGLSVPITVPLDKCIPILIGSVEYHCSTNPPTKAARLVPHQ

Row | SMILES | MIC [1] [µM] | MIC [2] [µM] | MIC [3] [µM] | MIC [4] [µM] | MIC [5] [µM] | MIC [6] [µM] | MIC [7] [µM] | MIC [8] [µM] | MIC [9] [µM] | MIC [10] [µM] | MIC [11] [µM] | IC50 [12] [µM] | IC50 [13] [nM] | MBC [14] [µg/mL] | MIC [15] [µg/mL] | IC50 [16] [nM]
1 | CC(=O)OC[C@H]1O[C@@H](NC(=S)N/N=C(\C)c2cc3cc(C)ccc3oc2=O)[C@H](OC(C)=O)[C@@H](OC(C)=O)[C@@H]1OC(C)=O | 25 (≈ 15.1 µg/mL) | 1.56 (≈ 0.945 µg/mL) | 12.5 (≈ 7.57 µg/mL) | 12.5 (≈ 7.57 µg/mL) | 50 (≈ 30.3 µg/mL) | 50 (≈ 30.3 µg/mL) | 3.12 (≈ 1.89 µg/mL) | 25 (≈ 15.1 µg/mL) | 100 (≈ 60.6 µg/mL) |  |  |  |  |  |  | 
2 | COc1cccc2cc(/C(C)=N/NC(=S)N[C@@H]3O[C@H](COC(C)=O)[C@@H](OC(C)=O)[C@H](OC(C)=O)[C@H]3OC(C)=O)c(=O)oc12 | 50 (≈ 31.1 µg/mL) | 6.25 (≈ 3.89 µg/mL) |  | 50 (≈ 31.1 µg/mL) | 1.56 (≈ 0.97 µg/mL) | 3.12 (≈ 1.94 µg/mL) | 25 (≈ 15.5 µg/mL) |  | 1.56 (≈ 0.97 µg/mL) | 50 (≈ 31.1 µg/mL) | 6.25 (≈ 3.89 µg/mL) |  |  |  |  | 
3 | CC(=O)OC[C@H]1O[C@@H](NC(=S)N/N=C(\C)c2c(C)c3ccc(O)cc3oc2=O)[C@H](OC(C)=O)[C@@H](OC(C)=O)[C@@H]1OC(C)=O | 0.78 (≈ 0.485 µg/mL) | 3.12 (≈ 1.94 µg/mL) | 12.5 (≈ 7.77 µg/mL) | 0.78 (≈ 0.485 µg/mL) | 100 (≈ 62.2 µg/mL) | 1.56 (≈ 0.97 µg/mL) | > 100 | 3.12 (≈ 1.94 µg/mL) | 100 (≈ 62.2 µg/mL) | 100 (≈ 62.2 µg/mL) | 1.56 (≈ 0.97 µg/mL) |  |  |  |  | 
4 | CC(=O)OC[C@H]1O[C@@H](NC(=S)N/N=C(\C)c2cc3ccc(C)cc3oc2=O)[C@H](OC(C)=O)[C@@H](OC(C)=O)[C@@H]1OC(C)=O | > 100 | 25 (≈ 15.1 µg/mL) | 25 (≈ 15.1 µg/mL) | 1.56 (≈ 0.945 µg/mL) | 25 (≈ 15.1 µg/mL) |  | 3.12 (≈ 1.89 µg/mL) |  | 25 (≈ 15.1 µg/mL) | 100 (≈ 60.6 µg/mL) | > 100 |  |  |  |  | 
5 | CC(=O)OC[C@H]1O[C@@H](NC(=S)N/N=C(\C)c2c(C)c3ccccc3oc2=O)[C@H](OC(C)=O)[C@@H](OC(C)=O)[C@@H]1OC(C)=O | 12.5 (≈ 7.57 µg/mL) | 12.5 (≈ 7.57 µg/mL) |  | 25 (≈ 15.1 µg/mL) |  | 100 (≈ 60.6 µg/mL) | 12.5 (≈ 7.57 µg/mL) |  | 50 (≈ 30.3 µg/mL) | > 100 | 25 (≈ 15.1 µg/mL) |  |  |  |  | 
6 | C/C(=N\NC(=S)NN[C@@H]1O[C@H](CO)[C@@H](O)[C@H](O)[C@H]1O)c1ccccn1 |  |  |  |  |  |  |  |  |  |  |  | 1.6 | 2800 |  |  | 
7 | CC(=O)OC[C@H]1O[C@@H](NC(=S)N/N=C(\C)c2cc3cccc([N+](=O)[O-])c3oc2=O)[C@H](OC(C)=O)[C@@H](OC(C)=O)[C@@H]1OC(C)=O | 12.5 (≈ 7.96 µg/mL) | 3.12 (≈ 1.99 µg/mL) |  | 0.78 (≈ 0.497 µg/mL) | 25 (≈ 15.9 µg/mL) | 12.5 (≈ 7.96 µg/mL) | 0.78 (≈ 0.497 µg/mL) | > 100 | 12.5 (≈ 7.96 µg/mL) | 12.5 (≈ 7.96 µg/mL) | 12.5 (≈ 7.96 µg/mL) |  |  |  |  | 
8 | CC(=O)OC[C@H]1O[C@@H](NC(=S)N/N=C(\C)c2cc3cc(Cl)ccc3oc2=O)[C@H](OC(C)=O)[C@@H](OC(C)=O)[C@@H]1OC(C)=O | 50 (≈ 31.3 µg/mL) | 100 (≈ 62.6 µg/mL) | 3.12 (≈ 1.96 µg/mL) | > 100 | 25 (≈ 15.7 µg/mL) | > 100 | 1.56 (≈ 0.977 µg/mL) | 50 (≈ 31.3 µg/mL) |  |  | 12.5 (≈ 7.83 µg/mL) |  |  |  |  | 
9 | CC(=O)OC[C@H]1O[C@@H](NC(=S)N/N=C(\C)c2cc3cc(Br)ccc3oc2=O)[C@H](OC(C)=O)[C@@H](OC(C)=O)[C@@H]1OC(C)=O | 25 (≈ 16.8 µg/mL) |  | 3.12 (≈ 2.1 µg/mL) | 100 (≈ 67 µg/mL) | 3.12 (≈ 2.1 µg/mL) | 3.12 (≈ 2.1 µg/mL) | 50 (≈ 33.5 µg/mL) | 25 (≈ 16.8 µg/mL) | 25 (≈ 16.8 µg/mL) |  | 6.25 (≈ 4.19 µg/mL) |  |  |  |  | 
10 | CC(=O)OC[C@H]1O[C@@H](NC(=S)N/N=C(\C)c2cc3ccccc3oc2=O)[C@H](OC(C)=O)[C@@H](OC(C)=O)[C@@H]1OC(C)=O | 50 (≈ 29.6 µg/mL) | > 100 | 50 (≈ 29.6 µg/mL) |  | 50 (≈ 29.6 µg/mL) | 12.5 (≈ 7.39 µg/mL) | 100 (≈ 59.2 µg/mL) | 100 (≈ 59.2 µg/mL) | 100 (≈ 59.2 µg/mL) | > 100 | 25 (≈ 14.8 µg/mL) |  |  |  |  | 
11 | CC(=O)OC[C@H]1O[C@@H](NC(=S)N/N=C(\C)c2cc3cc([N+](=O)[O-])ccc3oc2=O)[C@H](OC(C)=O)[C@@H](OC(C)=O)[C@@H]1OC(C)=O | 25 (≈ 15.9 µg/mL) | 12.5 (≈ 7.96 µg/mL) | 1.56 (≈ 0.993 µg/mL) | 12.5 (≈ 7.96 µg/mL) | 3.12 (≈ 1.99 µg/mL) | 12.5 (≈ 7.96 µg/mL) | 25 (≈ 15.9 µg/mL) | 100 (≈ 63.7 µg/mL) | 50 (≈ 31.8 µg/mL) | > 100 | 100 (≈ 63.7 µg/mL) |  |  |  |  | 
12 | NC(=S)N/N=C/c1ccc(OC(=O)CC2SC(=O)NC2=O)cc1 (centres undefined) |  |  |  |  |  |  |  |  |  |  |  |  |  | 0.063 (≈ 0.179 µM) | 0.031 (≈ 0.088 µM) | 
13 | COc1cc(C/C=N/NC(N)=S)ccc1O[C@@H]1O[C@H](COC(C)=O)[C@H](OC(C)=O)[C@H](OC(C)=O)[C@H]1OC(C)=O |  |  |  |  |  |  |  |  |  |  |  |  |  |  |  | 1200
14 | O=C(O)c1cn(C2CC2)c2cc(N3CCNCC3)c(F)cc2c1=O [CIPROFLOXACIN] |  |  | 1.56 (≈ 0.517 µg/mL) | 3.12 (≈ 1.04 µg/mL) | 1.56 (≈ 0.517 µg/mL) | 3.12 (≈ 1.04 µg/mL) |  | 1.56 (≈ 0.517 µg/mL) | 1.56 (≈ 0.517 µg/mL) | 3.12 (≈ 1.04 µg/mL) |  |  |  |  |  | 
15 | OC(Cn1cncn1)(Cn1cncn1)c1ccc(F)cc1F [FLUCONAZOLE] | 0.78 (≈ 0.239 µg/mL) | 1.56 (≈ 0.478 µg/mL) |  |  |  |  | 0.78 (≈ 0.239 µg/mL) |  |  |  | 0.78 (≈ 0.239 µg/mL) |  |  |  |  | 
16 | O=c1[nH]cc(F)c(=O)[nH]1 [FLUOROURACIL] |  |  |  |  |  |  |  |  |  |  |  | 4.75 | 2880 |  |  | 
17 | Clc1ccc(COC(Cn2ccnc2)c2ccc(Cl)cc2Cl)c(Cl)c1 (centres undefined) [MICONAZOLE] | 3.12 (≈ 1.3 µg/mL) | 1.56 (≈ 0.649 µg/mL) |  |  |  |  | 3.12 (≈ 1.3 µg/mL) |  |  |  | 1.56 (≈ 0.649 µg/mL) |  |  |  |  | 
18 | CN[C@H](CC(C)C)C(=O)N[C@H]1C(=O)N[C@@H](CC(N)=O)C(=O)N[C@H]2C(=O)N[C@H]3C(=O)N[C@H](C(=O)N[C@H](C(=O)O)c4cc(O)cc(O)c4-c4cc3ccc4O)[C@H](O)c3ccc(c(Cl)c3)Oc3cc2cc(c3O[C@@H]2O[C@H](CO)[C@@H](O)[C@H](O)[C@H]2O[C@H]2C[C@](C)(N)[C@H](O)[C@H](C)O2)Oc2ccc(cc2Cl)[C@H]1O [VANCOMYCIN] |  |  |  | 3.12 (≈ 4.53 µg/mL) |  |  |  |  |  | 1.56 (≈ 2.26 µg/mL) |  |  |  |  |  | 
